For one assay, the target named is 3CL^pro of SARS-CoV-2 (Severe acute respiratory syndrome coronavirus 2, UniProt P0DTD1). Nature of the assay: Inhibition activity against 3CLpro by fluorescence resonance energy transfer. The conditions noted are these: read-out: IC50 against 3CL^pro; n = 3. Type of assay: biochemical.
The target in another assay is PL^pro of SARS-CoV-2 (Severe acute respiratory syndrome coronavirus 2, UniProt P0DTD1). Nature of the assay: Inhibition activity against PLpro by fluorescence resonance energy transfer. Type of assay: biochemical. As to conditions: read-out: IC50 against PL^pro; n = 3.

SMILES strings stand for the structures.

The term IC50 denotes the midpoint of a concentration-inhibition curve. Turning to `CC1(C)CC[C@]2(C(=O)O)CC[C@]3(C)C(=CC[C@@H]4[C@@]5(C)CC[C@H](O[C@@H]6O[C@H](CO)[C@@H](O)[C@H](O)[C@H]6O)C(C)(C)C5CC[C@]43C)[C@H]2C1` (some centres unmarked) [Compound 34, oleanolic acid‐3‐O‐glucoside], the IC50 at 3CL^pro of SARS-CoV-2 was determined as 5.95 µM; on PL^pro of SARS-CoV-2 it was 7.57 µM.

Values taken from paper PMC10037152 (Plant Biotechnology Journal, 2023).
